Reference: patent US7662814B2, “4-aminothieno[2,3-d]pyrimidine-6-carbonitrile derivatives as PDE7 inhibitors” (Laboratorios Almirall, S.A., priority 2003, dated 2010)

Compound | melting point [°C]
CCN1CCN(c2nc(-c3ccc(OC)cc3)nc3sc(C#N)c(C)c23)CC1 [Example 2, 4-(4-Ethylpiperazin-1-yl)-2-(4-methoxyphenyl)-5-methylthieno[2,3-d]pyrimidine-6-carbonitrile] | 173 to 175
Cc1c(C#N)sc2nc(-c3ccncc3)nc(N(C)CCO)c12 [Example 42, 4-[(2-Hydroxyethyl)(methyl)amino]-5-methyl-2-pyridin-4-ylthieno[2,3-d]pyrimidine-6-carbonitrile] | 194 to 195
COc1ccc(-c2nc(N(C)C)c3c(C)c(C#N)sc3n2)cc1OC [Example 46, 2-(3,4-Dimethoxyphenyl)-4-(dimethylamino)-5-methylthieno[2,3-d]pyrimidine-6-carbonitrile] | 198 to 200
CCC(C)Nc1nc(-c2cc(OC)c(OC)c(OC)c2)nc2sc(C#N)c(C)c12 (centres unmarked) [Example 71, 4-(sec-Butylamino)-5-methyl-2-(3,4,5-trimethoxyphenyl)thieno[2,3-d]pyrimidine-6-carbonitrile] | 91 to 93
COc1cc(-c2nc(N3CCOCC3)c3c(C)c(C#N)sc3n2)cc(OC)c1OC [Example 51, 5-Methyl-4-morpholin-4-yl-2-(3,4,5-trimethoxy-phenyl)-thieno[2,3-d]pyrimidine-6-carbonitrile] | > 250
COc1cc(-c2nc(NC(C)C)c3c(C)c(C#N)sc3n2)cc(OC)c1OC [Example 70, 4-(Isopropylamino)-5-methyl-2-(3,4,5-trimethoxyphenyl)thieno[2,3-d]pyrimidine-6-carbonitrile] | 191 to 193
CCN(C)c1nc(-c2cc(OC)cc(OC)c2)nc2sc(C#N)c(C)c12 [Example 55, 2-(3,5-Dimethoxy-phenyl)-4-(ethyl-methyl-amino)-5-methyl-thieno[2,3-d]pyrimidine-6-carbonitrile] | 145 to 148
CCN(CC)c1nc(-c2ccc(OC)cc2)nc2sc(C#N)c(C)c12 [Example 10, 4-(Diethylamino)-2-(4-methoxyphenyl)-5-methylthieno[2,3-d]pyrimidine-6-carbonitrile] | 154 to 156
CCN(C)c1nc(-c2cc(OC)c(OC)c(OC)c2)nc2sc(C#N)c(C)c12 [Example 39, 4-[Ethyl(methyl)amino]-5-methyl-2-(3,4,5-trimethoxyphenyl)thieno[2,3-d]pyrimidine-6-carbonitrile] | 163 to 164
CCN(C)c1nc(-c2ccc(OC)cc2)nc2sc(C#N)c(C)c12 [Example 17, 4-[Ethyl(methyl)amino]-2-(4-methoxyphenyl)-5-methylthieno[2,3-d]pyrimidine-6-carbonitrile] | 122 to 123
CCCCNc1nc(-c2cc(OC)c(OC)c(OC)c2)nc2sc(C#N)c(C)c12 [Example 69, 4-(Butylamino)-5-methyl-2-(3,4,5-trimethoxyphenyl)thieno[2,3-d]pyrimidine-6-carbonitrile] | 192 to 194
CCN(C)c1nc(-c2ccncc2)nc2sc(C#N)c(C)c12 [Example 38, 4-[Ethyl(methyl)amino]-5-methyl-2-pyridin-4-ylthieno[2,3-d]pyrimidine-6-carbonitrile] | 162 to 164
Cc1c(C#N)sc2nc(-c3ccc(Cl)cc3)nc(N3CCN(C)CC3)c12 [Example 15, 2-(4-Chlorophenyl)-5-methyl-4-(4-methylpiperazin-1-yl)thieno[2,3-d]pyrimidine-6-carbonitrile] | 209 to 210
CCN(CC)c1nc(-c2ccc(OC)c(OC)c2)nc2sc(C#N)c(C)c12 [Example 20, 4-(Diethylamino)-2-(3,4-dimethoxyphenyl)-5-methylthieno[2,3-d]pyrimidine-6-carbonitrile] | 159 to 161
Cc1c(C#N)sc2nc(-c3ccc(C(F)(F)F)cc3)nc(N3CCN(C)CC3)c12 [Example 33, 5-Methyl-4-(4-methylpiperazin-1-yl)-2-[4-(trifluoromethyl)phenyl]thieno[2,3-d]pyrimidine-6-carbonitrile] | 187 to 189
CCN(CC)c1nc(-c2ccc3c(c2)OCO3)nc2sc(C#N)c(C)c12 [Example 36, 2-(1,3-Benzodioxol-5-yl)-4-(diethylamino)-5-methylthieno[2,3-d]pyrimidine-6-carbonitrile] | 199 to 201
CCN(CC)c1nc(-c2ccncc2)nc2sc(C#N)c(C)c12 [Example 45, 4-(Diethylamino)-5-methyl-2-pyridin-4-ylthieno[2,3-d]pyrimidine-6-carbonitrile] | 169 to 171
C#CCN(C)c1nc(-c2ccc(OC)cc2)nc2sc(C#N)c(C)c12 [Example 24, 2-(4-Methoxyphenyl)-5-methyl-4-[methyl(prop-2-ynyl)amino]thieno[2,3-d]pyrimidine-6-carbonitrile] | 160 to 171
Cc1c(C#N)sc2nc(-c3ccccc3)nc(N3CCNCC3)c12 [Example 8, 5-Methyl-2-phenyl-4-piperazin-1-ylthieno[2,3-d]pyrimidine-6-carbonitrile] | 251 to 253
COc1ccc(-c2nc(N(C)C)c3c(C)c(C#N)sc3n2)cc1 [Example 21, 4-(Dimethylamino)-2-(4-methoxyphenyl)-5-methylthieno[2,3-d]pyrimidine-6-carbonitrile] | 123 to 125
Cc1ccc(-c2nc(N3CCN(C)CC3)c3c(C)c(C#N)sc3n2)cc1 [Example 27, 5-Methyl-2-(4-methylphenyl)-4-(4-methylpiperazin-1-yl)thieno[2,3-d]pyrimidine-6-carbonitrile] | 207 to 209
Cc1c(C#N)sc2nc(-c3ccc4c(c3)OCO4)nc(N3CCOCC3)c12 [Example 37, 2-(1,3-Benzodioxol-5-yl)-5-methyl-4-morpholin-4-ylthieno[2,3-d]pyrimidine-6-carbonitrile] | 197 to 198

Other lines, results leading:

melting point [°C] | Compound
129 to 131 | COc1cc(Cc2nc(NCC(C)C)c3c(C)c(C#N)sc3n2)cc(OC)c1OC [Example 135, 4-(Isobutylamino)-5-methyl-2-(3,4,5-trimethoxybenzyl)thieno[2,3-d]pyrimidine-6-carbonitrile]
182 to 184 | COc1cc(-c2nc(NCC(C)C)c3c(C)c(C#N)sc3n2)cc(OC)c1OC [Example 72, 4-(Isobutylamino)-5-methyl-2-(3,4,5-trimethoxyphenyl)thieno[2,3-d]pyrimidine-6-carbonitrile]
209 to 214 | COc1cc(-c2nc(-n3cccn3)c3c(C)c(C#N)sc3n2)cc(OC)c1OC [Example 88, 5-Methyl-4-(1H-pyrazol-1-yl)-2-(3,4,5-trimethoxyphenyl)thieno[2,3-d]pyrimidine-6-carbonitrile]
211 to 213 | COc1cc(-c2nc(N3CCN(C(C)=O)CC3)c3c(C)c(C#N)sc3n2)cc(OC)c1OC [Example 85, 4-(4-Acetylpiperazin-1-yl)-5-methyl-2-(3,4,5-trimethoxyphenyl)thieno[2,3-d]pyrimidine-6-carbonitrile]
134 to 137 | CCC(C)Nc1nc(Cc2cc(OC)c(OC)c(OC)c2)nc2sc(C#N)c(C)c12 (centres unmarked) [Example 114, 4-(sec-Butylamino)-5-methyl-2-(3,4,5-trimethoxybenzyl)thieno[2,3-d]pyrimidine-6-carbonitrile]
127 to 129 | CCC(CC)Nc1nc(Cc2cc(OC)c(OC)c(OC)c2)nc2sc(C#N)c(C)c12 [Example 115, 4-[(1-Ethylpropyl)amino]-5-methyl-2-(3,4,5-trimethoxybenzyl)thieno[2,3-d]pyrimidine-6-carbonitrile]
146 to 148 | COc1cc(Cc2nc(NC(C)(C)C)c3c(C)c(C#N)sc3n2)cc(OC)c1OC [Example 116, 4-(tert-Butylamino)-5-methyl-2-(3,4,5-trimethoxybenzyl)thieno[2,3-d]pyrimidine-6-carbonitrile]
194 to 195 | CNc1nc(Cc2cc(OC)c(OC)c(OC)c2)nc2sc(C#N)c(C)c12 [Example 110, 5-Methyl-4-(methylamino)-2-(3,4,5-trimethoxybenzyl)thieno[2,3-d]pyrimidine-6-carbonitrile]
107 to 109 | CCN(CC)c1nc(Cc2ccc(OC)c(OC)c2)nc2sc(C#N)c(C)c12 [Example 101, 4-(Diethylamino)-2-(3,4-dimethoxybenzyl)-5-methylthieno[2,3-d]pyrimidine-6-carbonitrile]
143 to 147 | COc1cc(Cc2nc(NC(C)C)c3c(C)c(C#N)sc3n2)cc(OC)c1OC [Example 113, 4-(Isopropylamino)-5-methyl-2-(3,4,5-trimethoxybenzyl)thieno[2,3-d]pyrimidine-6-carbonitrile]
208 to 210 | COc1cc(-c2nc(-n3nccn3)c3c(C)c(C#N)sc3n2)cc(OC)c1OC [Example 90, 5-Methyl-4-(2H-1,2,3-triazol-2-yl)-2-(3,4,5-trimethoxyphenyl)thieno[2,3-d]pyrimidine-6-carbonitrile]
164 to 165 | CCNc1nc(Cc2cc(OC)c(OC)c(OC)c2)nc2sc(C#N)c(C)c12 [Example 111, 4-(Ethylamino)-5-methyl-2-(3,4,5-trimethoxybenzyl)thieno[2,3-d]pyrimidine-6-carbonitrile]
125 to 127 | COc1cc(-c2nc(N(C)CCN(C)C)c3c(C)c(C#N)sc3n2)cc(OC)c1OC [Example 107, 4-[[2-(Dimethylamino)ethyl](methyl)amino]-5-methyl-2-(3,4,5-trimethoxyphenyl) thieno[2,3-d]pyrimidine-6-carbonitrile]
161 to 163 | CNc1nc(Cc2ccc(OC)c(OC)c2)nc2sc(C#N)c(C)c12 [Example 94, 2-(3,4-Dimethoxybenzyl)-5-methyl-4-(methylamino)thieno[2,3-d]pyrimidine-6-carbonitrile]
222 to 225 | COc1cc(-c2nc(NCCC(=O)O)c3c(C)c(C#N)sc3n2)cc(OC)c1OC [Example 87, N-[6-Cyano-5-methyl-2-(3,4,5-trimethoxyphenyl)thieno[2,3-d]pyrimidin-4-yl]-beta-alanine]
218 to 220 | COc1cc(-c2nc(NC3CCCC3)c3c(C)c(C#N)sc3n2)cc(OC)c1OC [Example 77, 4-(Cyclopentylamino)-5-methyl-2-(3,4,5-trimethoxyphenyl)thieno[2,3-d]pyrimidine-6-carbonitrile]
